From patent US20200261516A1, “Composition for Increasing Muscle Mass” (MORINAGA MILK INDUSTRY CO., LTD., priority 2017, published 2020)

System: C57BL/6 mice
Test: Mouse test: muscle wet weight (body weight ratio) and gastrocnemius histology after 4-week oral administration
Type: in vivo
Conditions: once a day for 4 weeks, n=7/group
Protocol: C57BL/6 mice (Charles River, Japan: healthy mice) were used as test animals to evaluate the effect of 4-week continuous ingestion of Bifidobacterium breve FERM BP-11175 on muscle mass increase.
After receiving the test animals at 9 weeks old, F-2 feed (manufactured by Funabashi Pharm) and tap water were freely ingested. After one week of acclimatization, the test animals were divided into 3 groups (n=7/group): a control group (administered 10 mL/kg body weight of tap water); a Bifidobacterium administration group (administered 10 mL/kg body weight of culture supernatant of Bifidobacterium breve FERM BP-11175 prepared in (1) of test example 1); and a leucine administration group (administered 1.5 g/kg body weight of leucine), and oral administration was continued for each mouse using an oral probe once a day for 4 weeks. After the final administration, the test animals were fasted for 3 hours, followed by treatment under sevoflurane anesthesia, and plantaris and gastrocnemius was removed to measure the wet weight (body weight ratio) of each tissue. For gastrocnemius, the thin-sectioned tissue was stained with HE, and then the tissue was observed under a microscope.

CC(C)C[C@H](N)C(=O)O [Leucine, leucine]
Gastrocnemius tissue weight (body weight ratio) [Mean value ± SE]: 5.417 ± 0.125 mg/g body weight | Plantaris tissue weight (body weight ratio) [Mean value ± SE]: 0.706 ± 0.027 mg/g body weight
